Test results reported in US10890577B2, “Treatment methods having reduced drug-related toxicity and methods of identifying the likelihood of patient harm from prescribed medications” (TABULA RASA HEALTHCARE, INC., priority 2016, dated 2021).
Blank lines part the entries; values can stand above or below the compound they belong to.

What was measured:
[1] = molecular target: L-type Ca^2+ currents (Homo sapiens, UniProt Q13936); details: cited from earlier work
[2] = molecular target: IKs (Homo sapiens, UniProt P51787); details: cited from earlier work
[3] = molecular target: IKr (Homo sapiens, UniProt Q12809); details: cited from earlier work
Chain of IKr (Q12809 whole entry): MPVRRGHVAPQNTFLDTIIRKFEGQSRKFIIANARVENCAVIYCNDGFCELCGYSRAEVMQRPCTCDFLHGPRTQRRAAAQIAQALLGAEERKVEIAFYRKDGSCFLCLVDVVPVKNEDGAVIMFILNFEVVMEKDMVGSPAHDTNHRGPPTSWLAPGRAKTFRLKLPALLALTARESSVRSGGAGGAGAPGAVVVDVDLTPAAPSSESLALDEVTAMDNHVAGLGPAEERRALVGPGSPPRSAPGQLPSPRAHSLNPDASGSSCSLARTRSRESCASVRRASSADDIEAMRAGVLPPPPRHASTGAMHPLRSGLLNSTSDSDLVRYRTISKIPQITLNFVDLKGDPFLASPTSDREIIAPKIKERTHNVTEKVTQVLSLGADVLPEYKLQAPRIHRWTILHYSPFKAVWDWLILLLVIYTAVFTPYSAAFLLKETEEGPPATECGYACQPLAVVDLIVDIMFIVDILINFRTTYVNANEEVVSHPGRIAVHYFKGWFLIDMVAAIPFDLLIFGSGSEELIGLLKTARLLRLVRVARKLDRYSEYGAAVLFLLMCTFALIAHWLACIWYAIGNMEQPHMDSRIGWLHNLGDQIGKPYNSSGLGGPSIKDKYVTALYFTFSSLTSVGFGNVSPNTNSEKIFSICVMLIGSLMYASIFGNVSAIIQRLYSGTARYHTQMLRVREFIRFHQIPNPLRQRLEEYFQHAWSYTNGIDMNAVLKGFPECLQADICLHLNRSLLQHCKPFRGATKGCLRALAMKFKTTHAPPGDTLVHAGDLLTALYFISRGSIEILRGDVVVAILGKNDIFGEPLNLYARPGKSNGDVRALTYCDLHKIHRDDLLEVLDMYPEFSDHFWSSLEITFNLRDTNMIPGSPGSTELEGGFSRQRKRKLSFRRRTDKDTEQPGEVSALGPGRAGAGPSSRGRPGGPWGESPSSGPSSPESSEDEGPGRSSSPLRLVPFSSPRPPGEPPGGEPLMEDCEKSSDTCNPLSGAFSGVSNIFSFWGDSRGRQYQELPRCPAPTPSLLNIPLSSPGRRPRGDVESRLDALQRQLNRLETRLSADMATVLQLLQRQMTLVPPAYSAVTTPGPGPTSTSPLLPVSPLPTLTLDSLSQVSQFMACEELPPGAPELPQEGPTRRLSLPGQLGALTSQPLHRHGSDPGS

[4] = in vivo; cited from earlier work
[5] = CYP2D6 inhibited; 100/(100-MP); over the course of multiple doses
[6] = molecular target: CYP2D6 (Homo sapiens, UniProt P10635); details: in vivo; cited from earlier work
Chain of CYP2D6 (P10635 whole entry): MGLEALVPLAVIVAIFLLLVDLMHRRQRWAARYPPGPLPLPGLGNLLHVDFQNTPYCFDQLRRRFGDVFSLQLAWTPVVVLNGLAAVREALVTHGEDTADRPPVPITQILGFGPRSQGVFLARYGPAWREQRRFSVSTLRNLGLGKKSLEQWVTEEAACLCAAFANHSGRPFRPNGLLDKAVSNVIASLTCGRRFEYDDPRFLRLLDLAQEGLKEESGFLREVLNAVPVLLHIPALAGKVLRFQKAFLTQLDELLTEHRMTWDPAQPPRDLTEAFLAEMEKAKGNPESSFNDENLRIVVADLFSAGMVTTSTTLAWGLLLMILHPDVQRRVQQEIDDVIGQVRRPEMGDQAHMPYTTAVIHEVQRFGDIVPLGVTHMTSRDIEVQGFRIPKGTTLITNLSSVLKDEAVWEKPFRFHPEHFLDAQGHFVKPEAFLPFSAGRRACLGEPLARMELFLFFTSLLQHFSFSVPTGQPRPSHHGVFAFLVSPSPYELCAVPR

[7] = system: QTc interval; details: positive control; cited from earlier work
[8] = value inserted in K1 equation; read-out: Cmax of the drug at a test dose; cited from earlier work
[9] = value inserted in K1 equation as (100-97)/100; cited from earlier work

SMILES: CCCCc1oc2ccccc2c1C(=O)c1cc(I)c(OCCN(CC)CC)c(I)c1 [Amiodarone]
block of L-type Ca2+ currents [1]: blocks L-type Ca^2+ currents

SMILES: CC1Cc2ccccc2N1NC(=O)c1ccc(Cl)c(S(N)(=O)=O)c1 (centres unmarked) [Indapamide]
block of IKs [2]: inhibit IKs

SMILES: COc1ccccc1OCC(O)CN1CCN(CC(=O)Nc2c(C)cccc2C)CC1 (centres unmarked) [Ranolazine]
block of IKr [3]: blocks IKr

increase in concentration [5]: ~4 fold
SMILES: Cc1cccc(C)c1OCC(C)N (centres unmarked) [mexiletine]
F (bioavailability) [4]: 95% | cleared by CYP2D6 [6]: 75%

SMILES: COc1c(N2C[C@@H]3CCCN[C@@H]3C2)c(F)cc2c(=O)c(C(=O)O)cn(C3CC3)c12 [moxifloxacin]
QT prolongation added to the QTc interval [7]: 7-10 milliseconds

SMILES: CC(C)(C)c1ccc(C(O)CCCN2CCC(C(O)(c3ccccc3)c3ccccc3)CC2)cc1 (centres unmarked) [terfenadine]
Cmax [8]: 3.18 nM | Protein binding of the drug [9]: 97%

SMILES: Nc1nc(N)c2nc(-c3ccccc3)c(N)nc2n1 [triamterene]
block of IKs [2]: significant block | block of IKr [3]: significant block
